Values of other authors, collected in patent US4699782A (Delalande S.A., priority 1983, dated 1987).

Settings: human, in vivo; cited from earlier work

C#CCN(C)CCCOc1ccc(Cl)cc1Cl [Clorgyline]
dose of Tyramine from which hypertensive effects were recorded: ≥ 6 mg
